Assay results: ChEMBL document CHEMBL3431459, “Roche carnitine palmitoyltransferase modulator screening data (supplementary data associated with the publication CHEMBL2216752)”
In brackets after ≈: the same amount, converted by molar mass.

How the values were obtained:
[1] = SUPPLEMENTARY: PAMPA permeability assay; format: physicochemical; conditions: read-out: Permeability
[2] = target: T1, Carnitine O-palmitoyltransferase 1, muscle isoform (Homo sapiens, UniProt Q92523); assay: SUPPLEMENTARY: Inhibition of Carnitine palmitoyltransferase 1, muscle isoform; parameters: species or system Muscle tissue
T1 sequence (Q92523 whole entry): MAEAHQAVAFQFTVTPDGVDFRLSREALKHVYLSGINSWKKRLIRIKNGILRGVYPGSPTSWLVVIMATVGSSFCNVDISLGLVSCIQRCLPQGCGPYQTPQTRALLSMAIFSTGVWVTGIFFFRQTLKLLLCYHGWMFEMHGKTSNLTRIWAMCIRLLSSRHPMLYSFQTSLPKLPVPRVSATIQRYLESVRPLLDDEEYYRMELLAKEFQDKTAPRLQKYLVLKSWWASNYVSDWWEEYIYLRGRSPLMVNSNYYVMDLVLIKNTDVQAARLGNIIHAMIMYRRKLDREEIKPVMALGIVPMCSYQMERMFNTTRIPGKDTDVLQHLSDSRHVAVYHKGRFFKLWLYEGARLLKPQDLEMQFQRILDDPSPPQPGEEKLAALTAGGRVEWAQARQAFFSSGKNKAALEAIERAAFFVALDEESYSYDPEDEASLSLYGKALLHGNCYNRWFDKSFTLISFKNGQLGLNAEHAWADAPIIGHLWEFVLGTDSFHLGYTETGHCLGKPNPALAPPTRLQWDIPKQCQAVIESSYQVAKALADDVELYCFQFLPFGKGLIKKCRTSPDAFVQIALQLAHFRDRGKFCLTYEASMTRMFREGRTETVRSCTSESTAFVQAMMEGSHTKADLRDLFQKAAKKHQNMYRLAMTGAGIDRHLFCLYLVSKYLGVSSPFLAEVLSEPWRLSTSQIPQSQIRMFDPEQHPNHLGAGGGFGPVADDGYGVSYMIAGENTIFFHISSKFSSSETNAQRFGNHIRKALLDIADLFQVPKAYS

[3] = target: T2, Carnitine O-palmitoyltransferase 2, mitochondrial (Homo sapiens, UniProt P23786); assay: (§1) SUPPLEMENTARY: Inhibition of Carnitine palmitoyltransferase 2
T2 sequence (P23786 whole entry): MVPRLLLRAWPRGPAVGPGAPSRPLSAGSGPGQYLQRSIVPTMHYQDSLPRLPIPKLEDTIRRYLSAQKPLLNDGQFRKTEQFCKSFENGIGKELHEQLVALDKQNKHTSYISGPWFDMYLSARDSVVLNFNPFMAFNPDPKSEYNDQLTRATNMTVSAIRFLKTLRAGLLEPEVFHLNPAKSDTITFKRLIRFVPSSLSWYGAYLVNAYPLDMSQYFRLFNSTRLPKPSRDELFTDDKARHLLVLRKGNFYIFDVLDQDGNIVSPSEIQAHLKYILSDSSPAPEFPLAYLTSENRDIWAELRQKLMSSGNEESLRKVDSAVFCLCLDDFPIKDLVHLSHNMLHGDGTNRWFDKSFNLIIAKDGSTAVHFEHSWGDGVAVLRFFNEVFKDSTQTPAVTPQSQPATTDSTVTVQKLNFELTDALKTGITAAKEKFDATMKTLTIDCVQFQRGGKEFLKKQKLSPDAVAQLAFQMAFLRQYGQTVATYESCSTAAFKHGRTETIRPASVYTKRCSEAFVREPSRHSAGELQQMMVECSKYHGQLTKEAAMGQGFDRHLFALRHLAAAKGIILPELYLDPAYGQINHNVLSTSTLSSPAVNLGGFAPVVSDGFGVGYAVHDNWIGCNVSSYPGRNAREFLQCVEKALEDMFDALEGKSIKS

[4] = target: T3, Carnitine O-palmitoyltransferase 2, mitochondrial (Rattus norvegicus, UniProt P18886); assay: as §1
T3 sequence (P18886 whole entry): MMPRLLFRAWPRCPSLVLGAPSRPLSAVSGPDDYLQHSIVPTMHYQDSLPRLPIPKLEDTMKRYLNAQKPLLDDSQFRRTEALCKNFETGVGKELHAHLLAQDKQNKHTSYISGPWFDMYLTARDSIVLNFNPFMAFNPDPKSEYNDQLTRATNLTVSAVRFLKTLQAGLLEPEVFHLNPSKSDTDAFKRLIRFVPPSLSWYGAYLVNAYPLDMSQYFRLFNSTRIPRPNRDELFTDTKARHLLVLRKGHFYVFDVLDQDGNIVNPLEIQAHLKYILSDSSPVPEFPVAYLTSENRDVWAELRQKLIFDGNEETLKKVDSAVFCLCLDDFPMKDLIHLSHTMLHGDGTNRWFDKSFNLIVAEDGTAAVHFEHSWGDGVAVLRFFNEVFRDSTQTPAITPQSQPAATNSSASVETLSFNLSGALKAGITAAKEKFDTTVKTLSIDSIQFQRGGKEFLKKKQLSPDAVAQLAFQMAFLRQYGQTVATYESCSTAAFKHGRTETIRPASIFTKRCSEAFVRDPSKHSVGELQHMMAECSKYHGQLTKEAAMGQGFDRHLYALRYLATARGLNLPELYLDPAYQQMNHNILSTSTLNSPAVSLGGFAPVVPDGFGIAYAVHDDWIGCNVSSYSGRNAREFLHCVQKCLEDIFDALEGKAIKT

[5] = SUPPLEMENTARY: Lyophilisation Solubility Assay (LYSA); format: physicochemical; conditions: read-out: Kinetic_solubility
[6] = target: T4, Carnitine O-palmitoyltransferase 1, liver isoform (Homo sapiens, UniProt P50416); assay: (§2) SUPPLEMENTARY: Inhibition of Carnitine palmitoyltransferase 1, liver isoform
T4 sequence (P50416 whole entry): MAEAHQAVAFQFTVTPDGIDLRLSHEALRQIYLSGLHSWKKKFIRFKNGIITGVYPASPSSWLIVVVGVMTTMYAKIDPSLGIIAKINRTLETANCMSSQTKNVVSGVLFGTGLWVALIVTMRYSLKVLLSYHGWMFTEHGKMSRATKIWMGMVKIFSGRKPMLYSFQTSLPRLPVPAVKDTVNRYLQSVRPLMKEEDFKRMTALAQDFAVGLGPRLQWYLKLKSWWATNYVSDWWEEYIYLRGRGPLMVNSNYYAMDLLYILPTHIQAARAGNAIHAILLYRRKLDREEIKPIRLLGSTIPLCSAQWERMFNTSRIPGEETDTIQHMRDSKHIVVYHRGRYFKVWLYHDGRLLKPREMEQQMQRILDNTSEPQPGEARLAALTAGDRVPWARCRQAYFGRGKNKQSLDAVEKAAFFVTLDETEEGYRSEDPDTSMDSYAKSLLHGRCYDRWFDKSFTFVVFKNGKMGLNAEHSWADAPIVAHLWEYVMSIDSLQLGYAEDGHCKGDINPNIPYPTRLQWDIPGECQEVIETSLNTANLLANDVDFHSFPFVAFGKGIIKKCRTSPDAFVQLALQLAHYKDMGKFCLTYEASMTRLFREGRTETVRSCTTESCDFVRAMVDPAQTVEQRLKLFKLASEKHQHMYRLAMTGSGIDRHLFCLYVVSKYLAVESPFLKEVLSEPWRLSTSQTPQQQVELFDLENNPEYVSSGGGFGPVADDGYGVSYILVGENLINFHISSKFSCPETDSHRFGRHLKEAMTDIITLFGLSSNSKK

[7] = target: T5, Carnitine O-palmitoyltransferase 1, liver isoform (Rattus norvegicus, UniProt P32198); assay: as §2
T5 sequence (P32198 whole entry): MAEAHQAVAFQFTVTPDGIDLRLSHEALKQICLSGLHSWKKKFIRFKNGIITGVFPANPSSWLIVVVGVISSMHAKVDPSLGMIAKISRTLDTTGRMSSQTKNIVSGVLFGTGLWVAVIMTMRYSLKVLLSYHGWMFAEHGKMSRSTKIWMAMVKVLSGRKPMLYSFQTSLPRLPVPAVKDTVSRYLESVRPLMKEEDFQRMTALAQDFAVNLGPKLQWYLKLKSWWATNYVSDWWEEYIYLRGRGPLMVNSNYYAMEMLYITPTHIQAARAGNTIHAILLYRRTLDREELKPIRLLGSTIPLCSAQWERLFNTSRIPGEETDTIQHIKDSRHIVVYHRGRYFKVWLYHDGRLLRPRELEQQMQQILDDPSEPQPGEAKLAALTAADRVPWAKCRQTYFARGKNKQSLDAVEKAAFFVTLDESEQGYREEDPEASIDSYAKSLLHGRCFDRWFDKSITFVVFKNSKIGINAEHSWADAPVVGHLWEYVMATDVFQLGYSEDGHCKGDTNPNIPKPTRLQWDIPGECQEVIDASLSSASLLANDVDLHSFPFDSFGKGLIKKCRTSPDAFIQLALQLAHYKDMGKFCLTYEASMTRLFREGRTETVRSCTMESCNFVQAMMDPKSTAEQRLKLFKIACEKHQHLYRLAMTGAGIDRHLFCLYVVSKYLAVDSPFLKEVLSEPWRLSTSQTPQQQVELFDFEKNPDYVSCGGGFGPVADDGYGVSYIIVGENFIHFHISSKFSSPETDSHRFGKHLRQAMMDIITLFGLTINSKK

| SMILES | Papp [1] [×10⁻⁶ cm/s] | IC50 [2] [nM] | IC50 [3] [nM] | IC50 [4] [nM] | solubility kinetic [5] [µg/mL] | IC50 [6] [nM] | IC50 [7] [nM] |
| --- | --- | --- | --- | --- | --- | --- | --- |
| CCn1cc(Sc2cc(Cl)ccc2OC)c2cc(C(=O)Nc3ccc(C(=O)O)cc3)ccc21 | 0.71 | > 100000 | > 100000 | > 100000 | 4 (≈ 8.32 µM) | 169 | 473 |
| CCn1cc(S(=O)(=O)c2cc(Cl)ccc2OC)c2cc(C(=O)Nc3ccc(C(=O)O)cc3)ccc21 | 0.67 | 1960 | 537 | 1860 | 15 (≈ 29.2 µM) | 74.7 | 53.7 |
| COc1ccc(Cl)cc1S(=O)(=O)N1COc2c(F)cc(C(=O)Nc3ccc(CC(=O)O)cc3)cc21 | 2.84 | 614 | > 100000 | > 100000 | 38 (≈ 72.9 µM) | 155 | 132 |
| COc1ccc(Cl)cc1S(=O)(=O)N1COc2c(F)cc(C(=O)Nc3nc(CC(=O)O)cs3)cc21 | 2.24 | 553 | > 100000 | > 100000 | 309 (≈ 585 µM) | 31.2 | 52.3 |
| COc1ccc(Cl)cc1CN1C(=O)COc2ccc(C(=O)Nc3nc(CC(=O)O)cs3)cc21 | 1.13 | 32400 | > 100000 | > 100000 | 34 (≈ 69.7 µM) | 142 | 85.9 |
| COc1ccc(C)cc1S(=O)(=O)n1ccc2ccc(C(=O)Nc3ccc(C(=O)O)cc3)cc21 | 1.23 | 2650 | 1070 | 2670 | < 1 | 29.4 | 11.9 |
| Cn1cc(Sc2cccc(Cl)c2)c2cc(C(=O)Nc3ccc(C(=O)O)cc3)ccc21 | 0.13 | 1130 | 5070 | 7400 | 7 (≈ 16 µM) | 43.4 | 21.4 |
| COc1ccc(Cl)cc1S(=O)(=O)N1CCOc2ccc(C(=O)Nc3ccc(CCC(=O)O)cc3)cc21 | 3.3 | 932 | > 100000 | > 100000 | 4 (≈ 7.53 µM) | 175 | 106 |
| Nc1cccc(-c2nc([C@H]3CCCCN3C(=O)COc3ccccc3)no2)n1 | 5.45 | > 100000 | 32000 | > 100000 | 25 (≈ 65.9 µM) | 111 | 254 |
| COc1ccc(Cl)cc1S(=O)(=O)N1CCOc2c(C)cc(C(=O)Nc3ccc(C(=O)O)cc3)cc21 | 1.68 | 21100 | 554 | 4330 | 2 (≈ 3.87 µM) | 46.3 | 41.3 |
| COc1ccc(Cl)cc1S(=O)(=O)N1COc2c(Cl)cc(C(=O)Nc3ccc(C(=O)O)cc3)cc21 | 3.92 | > 100000 | 33700 | 68200 | 4 (≈ 7.64 µM) | 43.6 | 34.5 |
| COc1ccc(Cl)cc1S(=O)(=O)N1CCOc2c1cc(C(=O)Nc1ccc(C(=O)O)cc1)cc2C(F)(F)F | 2.65 | > 100000 | 2320 | 5230 | 103 (≈ 180 µM) | 77.1 | 156 |
